Assays:
VIM-1 = VIM-1 (Pseudomonas aeruginosa (strain ATCC 15692 / DSM 22644 / CIP 104116 / JCM 14847 / LMG 12228 / 1C / PRS 101 / PAO1), UniProt A0A0F7KYQ8); assay: biochemical; conditions: CCF2-FA substrate, 2 hours at 25° C
Method in brief: (§1)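 IC50 values derive from 4-parameter fits of percent inhibition against inhibitor concentration on semi-log axes. Activity was monitored by fluorescence with the CCF2-FA substrate after a 2-hour, 25° C incubation of compound, enzyme and substrate.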

[1] = test system: Serratia marcescens expressing IMP-1 (CL5741); assay type: cell-based; conditions: with imipenem 1 μg/ml, 95% inhibition of bacterial growth; for Serratia marcescens MITC95: IMP-1 (CL5741)
Method in brief: (§2)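 Restoration of imipenem susceptibility (1 μg/ml imipenem) was judged by absorbance after 22–24 h at 35° C. Test compound was added to bacteria suspended 1:100 in 1.1× CAMHB from overnight blood-agar cultures.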

[2] = test system: Escherichia coli expressing NDM-1 (CLB30005, CLB30016); assay type: cell-based; conditions: with imipenem 1 μg/ml, 95% inhibition of bacterial growth; for Escherichia coli MITC95: NDM-1 (CLB30016)
Method in brief: as §2

[3] = test system: Klebsiella pneumoniae expressing VIM-1 (IHMA599644); assay type: cell-based; conditions: with imipenem 1 μg/ml, 95% inhibition of bacterial growth; for Klebsiella pneumoniae MITC95: VIM-1 (IHMA599644)
Method in brief: as §2

[4] = test system: P. aeruginosa expressing IMP-1, efflux+ (MB9798); assay type: cell-based, Pseudomonas aeruginosa; conditions: for P. aeruginosa expressing IMP-1, efflux+ (MB9798) MITC95: imipenem at 2 μg/mL, in the presence of a class A, C, D serine β-lactamase inhibitor closely related to relebactam; for Efflux ratio: ratio MITC95 PA_9798/MITC95 PA_9799
From the text: (§3) The strain background is Pseudomonas aeruginosa PAO1.

[5] = test system: P. aeruginosa expressing IMP-1, efflux− (MB9799); assay: Efflux: concentration of MBL inhibitor which restores susceptibility to imipenem; assay type: cell-based, Pseudomonas aeruginosa; conditions: imipenem at 2 μg/mL, in the presence of a class A, C, D serine β-lactamase inhibitor closely related to relebactam
From the text: as §3

NDM-1 = NDM-1 (Klebsiella pneumoniae, UniProt C7C422); assay: biochemical; assay type: biochemical; conditions: CCF2-FA substrate, 2 hours at 25° C; read-out: NDM-1 IC50
Method in brief: as §1

IMP-1 = IMP-1 (Serratia marcescens, UniProt P52699); assay: biochemical; assay type: biochemical; conditions: CCF2-FA substrate, 2 hours at 25° C; read-out: IMP-1 IC50
Method in brief: as §1

NDM-1, sequence (C7C422 whole entry, looked up, species assumed): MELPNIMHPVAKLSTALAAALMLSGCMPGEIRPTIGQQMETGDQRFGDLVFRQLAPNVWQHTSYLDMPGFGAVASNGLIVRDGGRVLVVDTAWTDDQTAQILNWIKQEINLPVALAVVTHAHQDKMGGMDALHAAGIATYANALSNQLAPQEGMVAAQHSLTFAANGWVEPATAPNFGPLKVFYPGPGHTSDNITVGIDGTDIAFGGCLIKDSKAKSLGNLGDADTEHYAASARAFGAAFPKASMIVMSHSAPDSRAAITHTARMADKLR
IMP-1, sequence (P52699 whole entry, looked up, species assumed): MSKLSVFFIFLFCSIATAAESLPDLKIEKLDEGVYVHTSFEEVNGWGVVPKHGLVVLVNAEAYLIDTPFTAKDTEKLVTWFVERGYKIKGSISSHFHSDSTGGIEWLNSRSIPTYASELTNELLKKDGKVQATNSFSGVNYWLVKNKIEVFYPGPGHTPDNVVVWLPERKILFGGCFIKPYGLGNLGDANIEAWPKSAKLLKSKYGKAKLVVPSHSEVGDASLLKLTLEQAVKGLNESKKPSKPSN

Row | Compound | IC50 (VIM-1) [pM] | Serratia marcescens expressing IMP-1 (CL5741) MITC95 [1] [µM] | Escherichia coli expressing NDM-1 (CLB30016) MITC95 [2] [µM] | Klebsiella pneumoniae expressing VIM-1 (IHMA599644) MITC95 [3] [µM] | P. aeruginosa expressing IMP-1, efflux+ (MB9798) MITC95 [4] [µM] | Efflux ratio [4] | P. aeruginosa expressing IMP-1, efflux− (MB9799) MITC95 [5] [µM] | IC50 (NDM-1) [pM] | IC50 (IMP-1) [pM] | Serratia marcescens MITC95 [1] [µM] | Escherichia coli MITC95 [2] [µM] | Klebsiella pneumoniae MITC95 [3] [µM]
1 | NS(=O)(=O)c1c(S(=O)(=O)C2CNC2)ccc(-c2ccc3cn[nH]c3c2)c1-c1nnn[nH]1.O=C(O)C(F)(F)F [Example 127, 3-((4-(1H-indazol-6-yl)-2-sulfamoyl-3-(1H-tetrazol-5-yl)phenyl)sulfonyl)azetidin-1-ium 2,2,2-trifluoroacetate] | 428 | 3.125 | 0.7813 | 3.125 | 25 | 15.99 | 1.563 | 430 | 3010 |  |  | 
2 | NCCS(=O)(=O)c1ccc(-c2ccnc3c2CCCC3)c(-c2nn[nH]n2)c1S(N)(=O)=O [Example 271, 6-(2-aminoethylsulfonyl)-3-(5,6,7,8-tetrahydroquinolin-4-yl)-2-(2H-tetrazol-5-yl)benzenesulfonamide] | 177 |  |  |  | 12.5 | 8.00 | 1.563 | 1330 | 687 | 3.125 | 3.125 | 3.125
3 | NCCS(=O)(=O)c1ccc(-c2cccc(-n3ccnc3)c2)c(-c2nnn[nH]2)c1S(N)(=O)=O [Example 345, 4-((2-Aminoethyl)sulfonyl)-3′-(1H-imidazol-1-yl)-2-(1H-tetrazol-5-yl)-[1,1′-biphenyl]-3-sulfonamide] | 434 |  |  |  | 25 | 32.00 | 0.7813 | 1960 | 857 | 1.563 | 0.7813 | 3.125
4 | NC[C@@H](N)CS(=O)(=O)c1ccc(-c2cccc3[nH]c(N)nc23)c(-c2nn[nH]n2)c1S(N)(=O)=O [Example 360, (R)-3-(2-amino-1H-benzo[d]imidazol-4-yl)-6-((2,3-diaminopropyl)sulfonyl)-2-(2H-tetrazol-5-yl) benzenesulfonamide] | 287 |  |  |  | 0.8906 | 0.70 | 1.281 | 65.4 | 544 | 1.391 | 0.25 | 1.781
5 | CN1CC(S(=O)(=O)c2ccc(-c3cccc4[nH]c(N)nc34)c(-c3nn[nH]n3)c2S(N)(=O)=O)C1 [Example 52, 3-(2-amino-1H-benzo[d]imidazol-4-yl)-6-(1-methylazetidin-3-ylsulfonyl)-2-(2H-tetrazol-5-yl)benzenesulfonamide] | 628 | 1.563 | 0.3906 | 3.125 | 6.25 | 4.00 | 1.563 | 222 | 1330 |  |  | 
6 | NC[C@H](O)CS(=O)(=O)c1ccc(-c2cccc3[nH]cnc23)c(-c2nn[nH]n2)c1S(N)(=O)=O [Example 353, (S)-6-((3-amino-2-hydroxypropyl)sulfonyl)-3-(1H-benzo[d]imidazol-4-yl)-2-(2H-tetrazol-5-yl) benzenesulfonamide] | 202 |  |  |  | 0.7813 | 1.00 | 0.7813 | 185 | 392 | 1.563 | 1.563 | 3.125
7 | NCCS(=O)(=O)c1ccc(-c2ccc3[nH]c(N)nc3c2)c(-c2nn[nH]n2)c1S(N)(=O)=O [Example 69, 3-(2-amino-1H-benzo[d]imidazol-5-yl)-6-(2-aminoethylsulfonyl)-2-(2H-tetrazol-5-yl)benzenesulfonamide] | 485 | 0.4453 | 0.25 | 0.8906 | 3.125 | 7.02 | 0.4453 | 1250 | 2770 |  |  | 
8 | NCCS(=O)(=O)c1ccc(-c2cccc3[nH]c(C(=O)O)nc23)c(-c2nn[nH]n2)c1S(N)(=O)=O [Example 91, 4-(4-((2-aminoethyl)sulfonyl)-3-sulfamoyl-2-(2H-tetrazol-5-yl)phenyl)-1H-benzo[d]imidazole-2-carboxylic Acid] | 239 | 1.563 | 1.172 | 2.344 | 0.7813 | 1.00 | 0.7813 | 189 | 386 |  |  | 
9 | NCCS(=O)(=O)c1ccc(-c2cccc3c2nc(N)n3C2CNC2)c(-c2nn[nH]n2)c1S(N)(=O)=O [Example 202, 3-(2-amino-1-(azetidin-3-yl)-1H-benzo[d]imidazol-4-yl)-6-((2-aminoethyl)sulfonyl)-2-(2H-tetrazol-5-yl)benzenesulfonamide] | 1100 | 3.125 | 1.563 | 3.125 | 6.25 | 4.00 | 1.563 | 2920 | 858 |  |  | 
10 | Nc1nc2cccc(-c3ccc(S(=O)(=O)C4CNC4)c(S(N)(=O)=O)c3-c3nn[nH]n3)c2s1 [Example 26, 3-(2-aminobenzo[d]thiazol-7-yl)-6-(azetidin-3-ylsulfonyl)-2-(2H-tetrazol-5-yl)benzenesulfonamide] | 160 | 3.125 | 1.563 | 3.125 | 3.125 | 2.00 | 1.563 | 28.6 | 660 |  |  | 
11 | Nc1nc2c(-c3ccc(S(=O)(=O)C4CNC4)c(S(N)(=O)=O)c3-c3nn[nH]n3)cccc2c(=O)[nH]1 [Example 37, 3-(2-amino-4-oxo-3,4-dihydroquinazolin-8-yl)-6-(azetidin-3-ylsulfonyl)-2-(2H-tetrazol-5-yl)benzenesulfonamide] | 348 | 3.125 | 25 | 6.25 | 3.125 | 2.00 | 1.563 | 81 | 1900 |  |  | 

— US10227331B2 (priority 2015, dated 2019)
